# Entries after “also recorded” stand apart in the source; their conditions may differ. Where two headings read alike, the source gives them in different places.
# Key:
# T47D cell line [1] = assay: MTS cytotoxicity assay, T47D; assay type: cell-based, human; parameters: key to IC50 T47D: PCV: Promoting cell viability; NSC: No significant change; conditions: for IC50 T47D / IC50: MTS assay, 72 h incubation; for IC50: Homo sapiens, T47D
# Protocol: (§1) In this project, the colorectal cancer cell line HCT116 (ATCC® CCL-247™), […] prostate cancer cell line PC-3 (ATCC® CRL-1435™), breast cancer cell lines T47D (ATCC® HTB-133™), MCF7 (ATCC® HTB-22™) and finally, epithelial embryonic kidney cell line HEK293 (ATCC® CRL-1573™) were used. All media were completed with %10 fetal bovine serum (FBS) and %1 penicillin streptomycin amphotericin (PSA). All cells were cultured periodically at 37 °C, 5% (v/v) CO2 and 95% (v/v) air in T-75 flasks. Different media were used for the different cell lines based on ATCC standards: MCF7 and HEK293 cell lines were cultured in DMEM High Mmedium (ATCC, 30-2003); T47D and PC-3 cell lines were cultured in RPM 1640 medium (ATCC, 30-2001); HCT116 cell line was cultured in DMEM F12 medium (ATCC, 30-2006). RPM 1640 medium was further completed with 0.2 unit/mL bovine insulin for the T47D cell line. Cells were passaged when they reached %80 confluency in order to support proliferation.
# (§2) The effects of the synthesized compounds on the cell viability were tested. Stock solutions for each compound were prepared by measuring 20 mg of each compound and dissolving it in 1 mL DMSO to a final concentration of […], followed by filtration through a 0.2-μm filter (Sartorius AG, Gottingen, Germany). Then stock solutions were diluted as 1/10, 1/100 and 1/1000 in the designated media and applied on the cell lines. In order to determine the effect of DMSO itself, the same dilutions were performed by using DMSO, only and applied on the cell lines. Cell densities used for each cell line in 96 well plate were as follows: for PC-3, HCT116 and HEK293 cell lines 5000 cells/well; for T47D cell lines 20,000 cells/well. Cell viability was measured by the MTS cytotoxicity assay (CellTiter96 AqueousOne Solution; Promega, Southampton, UK) according to the manufacturer’s instructions. 3-(4,5-Dimethylthiazol-2-yl)-5-(3-carboxymethoxyphenyl)-2-(4-sulfo-phenyl)-2H-tetrazolium (MTS) is a yellow tetrazolium salt which is catabolized to formazan by dehydrogenase enzyme in the mitochondria of the living cells. Formazan is a purple compound and the detection in this assay is based on the measurement of formazan compounds by an ELISA plate reader. After incubating the cells for 72 h, 10 µL MTS reagent and 100 µL designated medium was given to the cells followed by 2 h of incubation at 37 °C. Thereafter, the absorbance at 490 nm was measured by an ELISA plate reader. (BioTek Instruments, Inc., Winooski, VT, USA). The activity doses of the compounds were determined according to 50% cell death rate when compared to DMSO, only after 72 h of incubation. […] IC50 values are calculated by the GraphPad prism software.
# PC-3 cell line [2] = assay: MTS cytotoxicity assay, PC-3; assay type: cell-based, human; parameters: key to IC50 PC-3: PCV: Promoting cell viability; NSC: No significant change; conditions: for IC50: Homo sapiens, PC-3
# Protocol: as §1, §2
# HEK293 cell line [3] = assay: MTS cytotoxicity assay, HEK293; assay type: cell-based, human; conditions: normal cell line; for IC50: Homo sapiens, HEK293, MTS assay, 72 h incubation
# Protocol: as §1, §2
# HCT116 cell line [4] = assay: Annexin V/PI apoptosis assay, HCT116; assay type: cell-based, human; conditions: FITC-Annexin V/PI flow cytometry
# Protocol: (§3) Evaluation of the effect of the synthesized compounds on apoptosis was determined by the FITCH-AnnexinV/PI protocol. Damaged cell membrane of necrotic cell enables propidium iodide (PI) to bind DNA and induces a red fluorescence, although it is excluded by non-damaged cells, select live and apoptotic cells. FITCH-Annexin V has the ability to bind to phosphatidylserine which is a specific marker of apoptosis. […] The lower left panel of the quadrant of the cytograms indicates live cells due to exclusion of PI and non-bound Annexin V.
# (§4) The upper left panel of the cytogram represents necrotic cells which are positive for PI. Each cytogram of each cell was analyzed and a histogram graph was drawn for further visual information.
# (§5) Determination of IC50 values was followed by the investigation of effect of the synthesized compounds on apoptosis. Cells were seeded into six well plates at densities of 15,000 cells/well (PC-3, HCT116 and HEK293 cell lines) and 60,000 cells/well (T47D cell lines). After the treatment cells were harvested and washed with ice cold PBS. 1 × Annexin-binding buffer was prepared while the cells were being washed. […] The incubation step was followed by adding 2 µL of the 100 µg/mL PI working solution to the proper groups then the fluorescence was observed by flow cytometry.
# HCT116 cell line [5] = assay: MTS cytotoxicity assay, HCT116; assay type: cell-based, human
# Protocol: as §1, §2
# T47D cell line [6] = assay: Annexin V/PI apoptosis assay, T47D; assay type: cell-based, human; conditions: FITC-Annexin V/PI flow cytometry
# Protocol: as §3, §4, §5
# HEK293 cell line [7] = assay: Annexin V/PI apoptosis assay, HEK293; assay type: cell-based; conditions: FITC-Annexin V/PI flow cytometry
# Protocol: as §3, §4
# Determination of IC50 values was followed by the investigation of effect of the synthesized compounds on apoptosis. Cells were seeded into six well plates at densities of 15,000 cells/well (PC-3, HCT116 and HEK293 cell lines) and 60,000 cells/well (T47D cell lines). After the treatment cells were harvested and washed with ice cold PBS. 1 × Annexin-binding buffer was prepared while the cells were being washed. Working solution of PI (100 µg/mL) was prepared as well by diluting 5 µL of the 1 mg/mL PI stock solution in 45 µL 1 × Annexin-binding buffer. After the precipitation of the cells, they were resuspended in 500 µL 1 × Annexin-binding buffer. Resuspended cells were separated into four groups (Annexin V, PI, Annexin V + PI and NC) each containing 100 µL of suspension. Five µL of the Annexin V conjugate was added to the proper groups. Samples were incubated for 15 min at room temperature. The incubation step was followed by adding 2 µL of the 100 µg/mL PI working solution to the proper groups then the fluorescence was observed by flow cytometry.
# PC-3 cell line [8] = test system: PC-3 cell line; parameters: method as in PMID 20658169, PMID 26580554; conditions: literature value ref 42,43; cited from earlier work
# T47D cell line [9] = test system: T47D cell line; parameters: method as in PMID 20658169, PMID 26580554; conditions: literature value ref 42,43; cited from earlier work
# HCT116 cell line [10] = test system: HCT116 cell line; parameters: method as in PMID 20658169, PMID 26580554; conditions: literature value ref 42,43; cited from earlier work
# MCF7 cell line = assay: MTS cytotoxicity assay, MCF7; assay type: cell-based; conditions: Homo sapiens, 72 h incubation
# Protocol: as §1, §2
# PC-3 cell line [11] = assay: Annexin V/PI apoptosis assay, PC-3; assay type: cell-based, human; conditions: FITC-Annexin V/PI flow cytometry
# Protocol: as §3, §4, §5
smiles,measurement,setting,value
O=C(NNC(=S)Nc1cccc(F)c1)c1cc(-c2ccc(F)cc2F)ccc1O [Compound 4],IC50 T47D,T47D cell line [1],PCV
same,IC50 PC-3,"PC-3 cell line [2]; MTS assay, 72 h incubation",PCV
same,IC50,HEK293 cell line [3],617 µM
"COc1ccccc1-n1c(-c2cc(-c3ccc(F)cc3F)ccc2O)n[nH]c1=S [Compound 16, 5-(2′,4′-Difluoro-4-hydroxybiphenyl-3-yl)-4-(2-methoxyphenyl)-2,4-dihydro-3H-1,2,4-triazole-3-thione]","apoptosis / necrosis, HCT116",HCT116 cell line [4],extensive apoptotic effect
same,anticancer activity against HCT-116 (in words),HCT116 cell line [5],displayed activity
same,IC50,"HCT116 cell line [5]; Homo sapiens, HCT-116, MTS assay, 72 h incubation",6.2 ± 3.1 µM
same,"apoptosis / necrosis, T47D",T47D cell line [6],resulted in necrosis
same,anticancer activity against T47D (in words),T47D cell line [1],demonstrated anticancer activity
same,IC50,T47D cell line [1],27.3 ± 2.28 µM
same,IC50,"PC-3 cell line [2]; MTS assay, 72 h incubation",169 ± 3.9 µM
same,IC50,HEK293 cell line [3],53 ± 2.39 µM
same,cytotoxic effect on HEK293 (in words),HEK293 cell line [3],did not show cytotoxic effects
same,"apoptosis / necrosis, HEK293",HEK293 cell line [7],did not result in apoptosis
N.N.[Cl][Pt][Cl] [Cisplatin],IC50,PC-3 cell line [8],39.9 µM
same,IC50,T47D cell line [9],0.836 µM
same,IC50,HCT116 cell line [10],1.25 µM
"O=C(NNC(=S)Nc1ccc(Br)cc1)c1cc(-c2ccc(F)cc2F)ccc1O [Compound 7, N-(4-Bromophenyl)-2-[(2′,4′-difluoro-4-hydroxybiphenyl-3-yl)carbonyl]hydrazine carbothioamide]",IC50,T47D cell line [1],16.7 ± 2.8 µM
same,IC50,"PC-3 cell line [2]; MTS assay, 72 h incubation",11.7 ± 4.2 µM
same,IC50,HEK293 cell line [3],3.17 ± 1.06 µM
"CCCn1c(-c2cc(-c3ccc(F)cc3F)ccc2O)n[nH]c1=S [Compound 11, 5-(2′,4′-Difluoro-4-hydroxybiphenyl-3-yl)-4-propyl-2,4-dihydro-3H-1,2,4-triazole-3-thione]",IC50,T47D cell line [1],10.1 ± 1.57 µM
same,IC50,"PC-3 cell line [2]; MTS assay, 72 h incubation",174 ± 6.3 µM
same,IC50,MCF7 cell line,22.2 ± 2.3 µM
same,IC50,HEK293 cell line [3],11.5 ± 0.2 µM
"Oc1ccc(-c2ccc(F)cc2F)cc1-c1n[nH]c(=S)n1-c1cccc(Cl)c1 [Compound 13, 4-(3-Chlorophenyl)-5-(2′,4′-difluoro-4-hydroxybiphenyl-3-yl)-2,4-dihydro-3H-1,2,4-triazole-3-thione]",IC50,T47D cell line [1],5.55 ± 2.7 µM
same,IC50,"PC-3 cell line [2]; MTS assay, 72 h incubation",34.1 ± 3.7 µM
same,IC50,MCF7 cell line,12.9 ± 2.1 µM
same,IC50,HEK293 cell line [3],8.7 ± 1.79 µM
"CCc1ccc(NC(=S)NNC(=O)c2cc(-c3ccc(F)cc3F)ccc2O)cc1 [Compound 10, 2-[(2′,4′-Difluoro-4-hydroxybiphenyl-3-yl)carbonyl]-N-(4-ethylphenyl)hydrazine carbothioamide]","apoptosis / necrosis, PC-3",PC-3 cell line [11],increase of late apoptosis markers; also recorded: undergo apoptosis highly
same,IC50 T47D,T47D cell line [1],NSC
same,anticancer activity against PC-3 (in words),PC-3 cell line [2],displayed anti-tumourigenic activity
same,IC50,"PC-3 cell line [2]; MTS assay, 72 h incubation",11.7 ± 2.6 µM
same,IC50,HEK293 cell line [3],94 ± 3.74 µM
same,cytotoxic effect on HEK293 (in words),HEK293 cell line [3],did not show cytotoxic effects
same,"apoptosis / necrosis, HEK293",HEK293 cell line [7],slight insignificant increase in necrosis; also recorded: did not result in apoptosis

# Source: paper PMC6222829, “Synthesis, Molecular Docking and Anticancer Activity of Diflunisal Derivatives as Cyclooxygenase Enzyme Inhibitors” (Molecules : A Journal of Synthetic Chemistry and Natural …, 2018)
